Where “and” joins values, the source holds several entries; their conditions need not be identical. Equal entries are not always repeated. Where two headings read alike, the source gives them in different places. Each block holds one molecule with its values, some of them ahead of it.
What was measured:
HMG-CoA reductase [1] = biological target: T1, HMG-CoA reductase (Rattus norvegicus, UniProt P51639); assay: HMG-CoA reductase activity in crude soluble extract of rat liver microsomes; assay type: biochemical; details: for HMG-CoA reductase activity: 1.98 without inhibitor
T1 construct: from tissue; host or cells: rat liver microsomes, crude soluble extract
T1 sequence (P51639 1-887): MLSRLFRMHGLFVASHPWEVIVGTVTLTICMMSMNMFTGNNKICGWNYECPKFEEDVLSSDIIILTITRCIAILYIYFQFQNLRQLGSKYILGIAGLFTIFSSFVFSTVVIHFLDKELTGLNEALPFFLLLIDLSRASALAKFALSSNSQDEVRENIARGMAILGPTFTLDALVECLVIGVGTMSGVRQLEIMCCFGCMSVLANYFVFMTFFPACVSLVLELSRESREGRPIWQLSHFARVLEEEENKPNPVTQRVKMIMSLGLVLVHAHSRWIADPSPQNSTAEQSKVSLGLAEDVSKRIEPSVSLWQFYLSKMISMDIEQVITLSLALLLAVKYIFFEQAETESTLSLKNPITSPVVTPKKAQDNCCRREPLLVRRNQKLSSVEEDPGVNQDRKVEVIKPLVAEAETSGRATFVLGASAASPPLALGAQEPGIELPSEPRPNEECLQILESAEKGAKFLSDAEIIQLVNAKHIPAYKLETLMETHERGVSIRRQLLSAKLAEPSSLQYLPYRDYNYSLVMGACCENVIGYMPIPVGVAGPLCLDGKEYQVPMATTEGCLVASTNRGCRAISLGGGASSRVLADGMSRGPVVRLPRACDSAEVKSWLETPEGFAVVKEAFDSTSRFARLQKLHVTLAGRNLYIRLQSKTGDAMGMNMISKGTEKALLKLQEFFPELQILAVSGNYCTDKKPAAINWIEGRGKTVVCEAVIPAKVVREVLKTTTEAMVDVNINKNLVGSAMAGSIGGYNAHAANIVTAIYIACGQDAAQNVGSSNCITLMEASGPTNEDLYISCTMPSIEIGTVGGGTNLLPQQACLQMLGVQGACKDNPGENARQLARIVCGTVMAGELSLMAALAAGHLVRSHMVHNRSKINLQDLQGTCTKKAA
Description: Crude soluble extract from rat liver microsomes was prepared as previously described (2). HMG-CoA reductase activity and incubation conditions were conducted as previously described (2,3).
The relative potencies, as HMG-CoA reductase inhibitors, of trifluoro-HMG-CoA, trifluoro-HMG and trifluoro-HMG anhydride were investigated.
The inhibition of HMG-CoA reductase activity was measured in crude soluble extract from rat liver microsomes. Crude soluble extract from rat liver microsomes was prepared as previously described (2). HMG-CoA reductase activity and incubation conditions were conducted as previously described (2,3). The HMG-CoA reductase activity of the crude soluble extract in the absence of inhibitor was considered as 100% and activities measured in the presence of inhibitors were compared to this norm.

HMG-CoA reductase [2] = biological target: T1, HMG-CoA reductase; assay: Inhibition of purified HMG-CoA reductase; assay type: biochemical; details: 1.1 mM, purified enzyme
Description: Hmg-coA reductase was purified from rat liver microsomes as previously described (2). HMG-CoA reductase activity assay and incubation conditions were conducted as previously described (2,3).

[3] = biological target: T2, rat liver microsomal HMG-CoA reductase (Rattus norvegicus, UniProt P51639); assay: Kinetics of inhibition of rat liver microsomal HMG-CoA reductase; assay type: biochemical
T2 construct: rat liver microsomal HMG-CoA reductase; from tissue; host or cells: rat liver microsomes
T2 sequence (P51639 1-887): T1 sequence (P51639 1-887)
Description: Table III summarizes the results of an experiment in which the kinetics of inhibition of rat liver microsomal HMG-CoA reductase by trifluoro-HMG-CoA were measured.
The velocity of mevalonate formation was first measured in the absence of trifluoro-HMG-CoA, varying the concentration of the substrate [3-^14 C]HMG-CoA. Then the same experiment was conducted in the presence of trifluoro-HMG-CoA (600 μM). The data were analyzed by means of an Eadie-Hofstee plot.

[4] = system: incorporation of [1-^14 C] acetate into cholesterol (nonsaponifiable extract) in intact rat liver cells; assay: Incorporation of [1-^14 C] acetate into cholesterol (nonsaponifiable extract) in intact liver cells; assay type: cell-based
Description: Duplicate samples contained 3.7 ml of hepatocyte suspension and 0.28 ml of saturated KHCO3 (pH […]) which contained varying final concentrations (0, 0.01, 0.10 or 1.0 mM) of trifluoro-HMG-CoA. Preincubation was conducted for 60 minutes. 10 μCi of [1-^14 C] sodium acetate, dissolved in Krebs Ringer bicarbonate buffer, was then added to each sample. Incubation was conducted for 120 minutes in a Dubnoff shaker. Saponification and extraction were conducted as previously described (4).

HMG-CoA reductase [5] = biological target: T1, HMG-CoA reductase; assay: Liver microsomal HMG-CoA reductase activity in rats treated with trifluoro-HMG-CoA; assay type: in vivo; details: 0.2 mg per intraperitoneal injection, 6 days
Description: (§1) Control rats received an injection of the vehicle (KHCO3 buffer) used for trifluoro-HMG-CoAinjection. Liver microsomes were isolated from these animals, and HMG-CoA reductase activity was measured. The control group average HMG-CoA reductase specific activity was 1.25 nmol mevalonate formed/min/mg protein. […] This difference was statistically significant at the p=0.005 level.
(§2) Twelve male rats of identical age were used. Six rats served as the control group; these rats received an intraperitoneal injection of KHCO3 buffer (0.2 ml) once per day (3:00 pm) for six days, except on the final day when additional injections were given at 10:00 pm and 6:00 am the following day. The drug-treated group of six rats received intraperitoneal injections of trifluoro-HMG-CoA (0.2 mg) in KHCO3 buffer (0.2 ml) on the same schedule as described above for the control group. The data were further analyzed by the t statistic between the mean for each group.

[6] = Total body weights and liver weights of treated and control rats; assay type: in vivo, rat; details: 0.2 mg per intraperitoneal injection, 6 days
Description: as §1, §2

[7] = substrate: CC(O)(CC(=O)O)CC(=O)SCCNC(=O)CCNC(=O)[C@H](O)C(C)(C)COP(=O)(O)OP(=O)(O)OC[C@H]1O[C@@H](n2cnc3c(N)ncnc32)[C@H](O)[C@@H]1OP(=O)(O)O; assay: cells, lysate or membranes named; details: other: absence of trifluoro-HMG-CoA; Eadie-Hofstee plot
[8] = 1 mM, crude soluble extract, relative potencies (Table VI), read-out: Inhibition of HMG-CoA reductase activity

Molecule: CC(C)(COP(=O)(O)OP(=O)(O)OC[C@H]1O[C@@H](n2cnc3c(N)ncnc32)[C@H](O)[C@@H]1OP(=O)(O)O)[C@@H](O)C(=O)NCCC(=O)NCCSC(=O)CC(O)(CC(=O)O)C(F)(F)F (stereo partly drawn) [Trifluoro-HMG-CoA, 3-Hydroxy-3-Trifluoromethylglutaryl-Coenzyme A]
inhibition at 10 µM (HMG-CoA reductase [1]; 0.01 mM, crude soluble extract): 7%
HMG-CoA reductase activity (HMG-CoA reductase [1]; 0.01 mM, crude soluble extract): 1.85 nmol mevalonate formed/min/ml
inhibition at 100 µM (HMG-CoA reductase [1]; 0.10 mM, crude soluble extract): 35%
HMG-CoA reductase activity (HMG-CoA reductase [1]; 0.10 mM, crude soluble extract): 1.29 nmol mevalonate formed/min/ml
Relative potency versus the free acid [3-hydroxy-3-trifluoromethylglutaric acid] (HMG-CoA reductase [1]; 1 mM, crude soluble extract): substantially more potent inhibitor than the free acid
inhibition at 1000 µM (HMG-CoA reductase [1]; 1.00 mM, crude soluble extract (Table I), read-out: Inhibition): 78%
HMG-CoA reductase activity (HMG-CoA reductase [1]; 1.00 mM, crude soluble extract): 0.44 nmol mevalonate formed/min/ml
inhibition at 1000 µM (HMG-CoA reductase [1]; [8]): 78%
Inhibition (in words) (HMG-CoA reductase [1]; 0.1 and 1.0 mM, crude soluble extract): significant inhibition
inhibition at 1100 µM (HMG-CoA reductase [2]): 73%
HMG-CoA reductase specific activity (HMG-CoA reductase [2]; 931.9 without inhibitor): 253.5 nmol mevalonate formed/min/mg
Ki ([3]; rat liver microsomes, substrate HMG-CoA, Eadie-Hofstee plot): 54 µM
Inhibition type ([3]; versus natural substrate HMG-CoA): competitive inhibitor
inhibition at 10 µM ([4]; Rattus norvegicus, 0.01 mM, preincubation 60 minutes, incubation 120 minutes): 34%
inhibition at 100 µM ([4]; Rattus norvegicus, 0.10 mM, preincubation 60 minutes, incubation 120 minutes): 67%
inhibition at 1000 µM ([4]; Rattus norvegicus, 1.00 mM, preincubation 60 minutes, incubation 120 minutes): 88%
IC50 ([4]; Rattus norvegicus, calculated from the Table IV experiment, intact liver cells, read-out: Concentration for 50% inhibition of cholesterol formation): ~40 µM
Inhibition of cholesterol formation (in words) ([4]; concentrations as low as 0.01 mM): significant inhibition of cholesterol formation
HMG-CoA reductase specific activity, average of treated rats (HMG-CoA reductase [5]; average of six rats, control average 1.25, p=0.005): 0.63 nmol mevalonate formed/min/mg protein
HMG-CoA reductase specific activity, individual treated rats (HMG-CoA reductase [5]; individual rat): 0.42 nmol mevalonate formed/min/mg protein and 0.59 nmol mevalonate formed/min/mg protein and 0.83 nmol mevalonate formed/min/mg protein and 0.58 nmol mevalonate formed/min/mg protein and 0.95 nmol mevalonate formed/min/mg protein and 0.40 nmol mevalonate formed/min/mg protein
Total body weights and liver weights, treated versus control group [6]: not significantly different

B1: rat liver microsomal HMG-CoA reductase (Rattus norvegicus) (protein)
chain: T1 sequence (P51639 1-887)
Km [7]: 34.5 µM

Continued, values first:

inhibition at 1000 µM (HMG-CoA reductase [1]; [8]): 11%
Molecule: O=C(O)CC(O)(CC(=O)O)C(F)(F)F [Trifluoro-HMG, 3-Hydroxy-3-Trifluoromethylglutaric Acid]

inhibition at 1000 µM (HMG-CoA reductase [1]; [8]): 27%
Molecule: O=C1CC(O)(C(F)(F)F)CC(=O)O1 [Trifluoro-HMG-anhydride, 3-Hydroxy-3-Trifluoromethylglutaric Anhydride]
